BindingDB's records for doi:10.1158/1535-7163.MCT-07-0352 (Saic-Frederick, 2007)
pIC50: −log10 of the molar value.

What follows are molecules tested against T1, Broad substrate specificity ATP-binding cassette transporter ABCG2 (Homo sapiens, UniProt Q9UNQ0) (assay: Screening Assay for ABCG2 Inhibitors). Conditions: pH 7.4; 37 °C.
T1 sequence (Q9UNQ0 whole entry): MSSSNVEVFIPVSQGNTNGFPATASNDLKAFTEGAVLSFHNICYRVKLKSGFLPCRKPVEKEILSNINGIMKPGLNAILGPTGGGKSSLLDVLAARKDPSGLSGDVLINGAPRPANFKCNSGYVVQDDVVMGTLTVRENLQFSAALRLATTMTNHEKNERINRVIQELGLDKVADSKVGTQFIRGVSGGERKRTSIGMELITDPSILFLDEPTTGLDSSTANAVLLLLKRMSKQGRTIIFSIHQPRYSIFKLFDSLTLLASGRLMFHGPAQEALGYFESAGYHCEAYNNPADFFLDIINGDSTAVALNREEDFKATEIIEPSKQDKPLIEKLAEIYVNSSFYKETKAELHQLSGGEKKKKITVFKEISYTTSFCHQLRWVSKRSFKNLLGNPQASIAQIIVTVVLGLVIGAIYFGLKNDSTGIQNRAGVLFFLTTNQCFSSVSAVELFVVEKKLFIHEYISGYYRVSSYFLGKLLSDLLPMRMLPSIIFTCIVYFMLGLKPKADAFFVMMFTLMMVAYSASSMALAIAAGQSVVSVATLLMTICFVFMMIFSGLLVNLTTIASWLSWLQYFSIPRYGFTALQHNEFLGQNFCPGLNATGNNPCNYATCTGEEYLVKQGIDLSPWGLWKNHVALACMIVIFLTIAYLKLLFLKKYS
Description: IC50 and maximal activities for inhibition of PhA accumulation were determined from dose-response curves. The accumulation of PhA, a fluorescent ABCG2 substrate, formed the basis of the assay for inhibitors of ABCG2 activity. NCI-H460/MX20 cells were transferred to black-walled, clear-bottomed 384-well polylysine-coated assay plates (Corning) and allowed to attach for several hours. PhA was added, immediately followed by compounds or vehicle (DMSO/PBS) control and incubated for an additional 18 h. After removal of medium and washing with PBS containing Ca2+ and Mg2+, fluorescence intensity was read on a Tecan Safire fluorescence plate reader in bottom read mode (395 nm excitation, 670 nm emission). Each plate had control wells containing Fumitremorgin C (FTC). Data were normalized to FTC and reported as the percentage of FTC fluorescence. Apparent IC50 values were calculated from dose-response data using SigmaPlot (SPSS, Inc., Chicago) 4-parameter logistic nonlinear regression analysis.

Point of comparison: `CC(C)C1(NC(=O)C2CC3c4cccc5[nH]cc(c45)CC3N(C)C2)OC2(O)C3CCCN3C(=O)C(Cc3ccccc3)N2C1=O` (stereo not given) [Dihydroergocristine], pIC50 4.93. Against it:
- CC1CCC2(OC1)OC1C(O)C3C4CCC5CC(OC6OC(CO)C(OC7OC(CO)C(O)C(OC8OCC(O)C(O)C8O)C7OC7OC(CO)C(O)C(OC8OC(CO)C(O)C(O)C8O)C7O)C(O)C6O)C(O)CC5(C)C4CCC3(C)C1C2C (stereo not given) [Digitonin] — within 0.2 log units, 5.01
- Cc1[nH]n(C(=O)c2ccncc2)c(=O)c1N=Nc1ccc2ccccc2c1 [NSC303769] — 0.31 log units higher, 5.24
- Cc1ccc(NC(=O)c2cc3ccccc3cc2O)c(C)c1 [NSC306698] — 0.34 log units higher, 5.27
- NN=C1C(OC(=O)Nc2cccc(Cl)c2)=Nc2ccccc21 [NSC320852] — 0.41 log units higher, 5.34
